Results: US20210137948A1, “TREATMENT OF INFECTIONS CAUSED BY NEISSERIA GONOCOCCUS USING A HALOGENATED SALICYLANILIDE” (priority 2018, published 2021)
Values after ≈ are worked out from the molar mass of the structure shown. Where two headings read alike, the source gives them in different places.

How the values were obtained:
rats = conditions: cited from earlier work
mice = conditions: cited from earlier work
[1] = test system: Neisseria gonorrhoeae CDC panel consisting of 48 isolates; experiment: Agar dilution MIC, CDC panel of 48 isolates (Example 2); type: cell-based; conditions: for MIC: Neisseria gonorrhoeae, read-out: Minimal inhibitory concentration
Experimental: Neisseria gonorrhoeae (Neisseria gonocossus) were tested for antimicrobial susceptibility using agar dilution as described by the Clinical and Laboratory Standards Institute (CLSI), see reference (4).
The concentrations tested for each compound encompass the reported interpretive breakpoints and consist of 8 or more doubling dilutions, ensuring that there is one dilution below the lowest value of QC.
GC agar base +1% defined growth supplement.
Initial screening strains: Neisseria gonorrhoeae CDC panel consisting of 48 isolates. The strains were provided by Clinical and Environmental Microbiology Branch, Division of Healthcare Quality Promotion, CDC (Atlanta, US).
Dilution scheme for reference method: Prepare intermediate 100× antimicrobial agent solutions by making successive serial twofold dilutions. Then, add one part of the 100× antimicrobial solution to […] of molten agar. Plates containing no antimicrobial agent solutions are made for use as growth controls. It is important that no longer than one hour elapses between the time that the stock solution is thawed, the dilutions are prepared and added to the base medium and the plates are poured, see reference (5).
• Add appropriate dilutions of antimicrobial solution to molten test agars that have been allowed to equilibrate in a water bath to 50° C. • Mix the agar and antimicrobial solution thoroughly and pour (20 mL) into Petri dishes on a level surface. Pour quickly after mixing to prevent cooling and partial solidification in the mixing container. Avoid generating bubbles when mixing. • Allow the agar to solidify at room temperature and store them in sealed plastic bags at 2 to 8° C. for up to five days. Preferably use with 24 hours. • Allow plates stored at 2 to 8° C. to equilibrate to room temperature before use. Make certain that the agar surface is dry before inoculating the plates. If necessary, place the plates in an incubator or laminar flow hood for approximately 30 minutes with their lids ajar to hasten drying of the agar surface.
Inoculum preparation: Prepare a standardized inoculum for the agar dilution method by suspending isolated colonies of Neisseria gonorrhoeae selected from an 18-24 hour-old chocolate agar plate directly in Mueller Hinton Broth (MHB) to achieve the density equivalent to a 0.5 McFarland standard and adjusted to obtain a cell density of ˜1-2×10^8 CFU/mL. For N. gonorrhoeae, the McFarland solutions are made at a reading of ˜0.80 in densitometer (Grant Instruments DEN-1B Densitometer) because these values have been evaluated and correspond to the desired CFU/mL count.
Dilution of inoculum suspension: Cultures adjusted to the 0.5 McFarland standard contain approximately 1 to 2×10^8 CFU/mL with most species, and the final inoculum required is 10^4 CFU per spot. When using replicators with 3-mm pins that deliver ˜2.5 μL, dilute the 0.5 McFarland suspension 1:10 in sterile MHB to obtain a concentration of 10^7 CFU/mL. The final inoculum on the agar will be approximately 10^4 CFU per spot. Use the adjusted suspensions for final inoculation within 60 minutes of preparation, see reference (5).
The following procedure was followed: • Arrange the tubes containing the adjusted and diluted bacterial suspensions (10^7 CFU/mL) in order in a rack. Place an aliquot of each well-mixed suspension into the corresponding well in the replicator inoculum block (if being used). • Mark the agar plates for orientation of the inoculum spots. • Apply an aliquot of each inoculum (2.5 μL) to the agar surface, either with an inocula-replicating device or pipette, to obtain a final concentration of ˜10^4 CFU/spot. • Inoculate a growth-control plate (no antimicrobial agent) first and then, starting with the lowest concentration, inoculate the plates containing the different antimicrobial concentrations. […]

In the case of `Cc1cc(C(C#N)c2ccc(Cl)cc2)c(Cl)cc1NC(=O)c1cc(I)cc(I)c1O` (stereo not drawn) [Closantel, closantel], the “LD50, median” value (rats; p.o., median of the studies) is given as 302 mg/kg, the LD50 (rats; p.o.) is given as 262 to 342 mg/kg and the LD50 (rats; s.c.) is given as 67 mg/kg. For the same compound, the LD50 (mice; i.m.) was 57 mg/kg, the LD50 (mice; p.o.) was 331 mg/kg and the MIC ([1]; Neisseria gonorrhoeae strain CDC # 165) was 8 µg/mL (≈ 12.1 µM). The MIC ([1]; Neisseria gonorrhoeae strain CDC # 166) was ≤ 0.25 µg/mL, the MIC ([1]; Neisseria gonorrhoeae strain CDC # 167) was ≤ 0.25 µg/mL and the MIC ([1]; Neisseria gonorrhoeae strain CDC # 169) was ≤ 0.25 µg/mL. For the same compound, the MIC ([1]; Neisseria gonorrhoeae strain CDC # 170) was ≤ 0.25 µg/mL, the MIC ([1]; Neisseria gonorrhoeae strain CDC # 171) was ≤ 0.25 µg/mL and the MIC ([1]; Neisseria gonorrhoeae strain CDC # 172) was ≤ 0.25 µg/mL. For the same compound, the MIC ([1]; Neisseria gonorrhoeae strain CDC # 173) was 0.5 µg/mL (≈ 0.754 µM), the MIC ([1]; Neisseria gonorrhoeae strain CDC # 174) was ≤ 0.25 µg/mL and the MIC ([1]; Neisseria gonorrhoeae strain CDC # 175) was ≤ 0.25 µg/mL. The MIC ([1]; Neisseria gonorrhoeae strain CDC # 176) was ≤ 0.25 µg/mL, the MIC ([1]; Neisseria gonorrhoeae strain CDC # 177) was 4 µg/mL (≈ 6.03 µM) and the MIC ([1]; Neisseria gonorrhoeae strain CDC # 178) was ≤ 0.25 µg/mL. The MIC ([1]; Neisseria gonorrhoeae strain CDC # 179) was ≤ 0.25 µg/mL, the MIC ([1]; Neisseria gonorrhoeae strain CDC # 180) was ≤ 0.25 µg/mL and the MIC ([1]; Neisseria gonorrhoeae strain CDC # 181) was ≤ 0.25 µg/mL. For the same compound, the MIC ([1]; Neisseria gonorrhoeae strain CDC # 182) was ≤ 0.25 µg/mL, the MIC ([1]; Neisseria gonorrhoeae strain CDC # 183) was ≤ 0.25 µg/mL and the MIC ([1]; Neisseria gonorrhoeae strain CDC # 184) was ≤ 0.25 µg/mL. The MIC ([1]; Neisseria gonorrhoeae strain CDC # 185) was ≤ 0.25 µg/mL, the MIC ([1]; Neisseria gonorrhoeae strain CDC # 186) was ≤ 0.25 µg/mL and the MIC ([1]; Neisseria gonorrhoeae strain CDC # 187) was ≤ 0.25 µg/mL. For the same compound, the MIC ([1]; Neisseria gonorrhoeae strain CDC # 188) was ≤ 0.25 µg/mL, the MIC ([1]; Neisseria gonorrhoeae strain CDC # 189) was ≤ 0.25 µg/mL and the MIC ([1]; Neisseria gonorrhoeae strain CDC # 190) was ≤ 0.25 µg/mL. For the same compound, the MIC ([1]; Neisseria gonorrhoeae strain CDC # 191) was ≤ 0.25 µg/mL, the MIC ([1]; Neisseria gonorrhoeae strain CDC # 192) was ≤ 0.25 µg/mL and the MIC ([1]; Neisseria gonorrhoeae strain CDC # 193) was ≤ 0.25 µg/mL. For the same compound, the MIC ([1]; Neisseria gonorrhoeae strain CDC # 194) was ≤ 0.25 µg/mL, the MIC ([1]; Neisseria gonorrhoeae strain CDC # 195) was ≤ 0.25 µg/mL and the MIC ([1]; Neisseria gonorrhoeae strain CDC # 196) was ≤ 0.25 µg/mL. For the same compound, the MIC ([1]; Neisseria gonorrhoeae strain CDC # 198) was ≤ 0.25 µg/mL, the MIC ([1]; Neisseria gonorrhoeae strain CDC # 199) was ≤ 0.25 µg/mL and the MIC ([1]; Neisseria gonorrhoeae strain CDC # 200) was ≤ 0.25 µg/mL. For the same compound, the MIC ([1]; Neisseria gonorrhoeae strain CDC # 201) was ≤ 0.25 µg/mL, the MIC ([1]; Neisseria gonorrhoeae strain CDC # 202) was ≤ 0.25 µg/mL and the MIC ([1]; Neisseria gonorrhoeae strain CDC # 203) was ≤ 0.25 µg/mL. For the same compound, the MIC ([1]; Neisseria gonorrhoeae strain CDC # 204) was 0.5 µg/mL (≈ 0.754 µM), the MIC ([1]; Neisseria gonorrhoeae strain CDC # 205) was ≤ 0.25 µg/mL and the MIC ([1]; Neisseria gonorrhoeae strain CDC # 206) was ≤ 0.25 µg/mL. The MIC ([1]; Neisseria gonorrhoeae strain CDC # 207) was ≤ 0.25 µg/mL, the MIC ([1]; Neisseria gonorrhoeae strain CDC # 208) was ≤ 0.25 µg/mL and the MIC ([1]; Neisseria gonorrhoeae strain CDC # 209) was ≤ 0.25 µg/mL. The MIC ([1]; Neisseria gonorrhoeae strain CDC # 210) was ≤ 0.25 µg/mL, the MIC ([1]; Neisseria gonorrhoeae strain CDC # 211) was ≤ 0.25 µg/mL and the MIC ([1]; Neisseria gonorrhoeae strain CDC # 212) was ≤ 0.25 µg/mL. For the same compound, the MIC ([1]; Neisseria gonorrhoeae strain CDC # 213) was ≤ 0.25 µg/mL, the MIC ([1]; Neisseria gonorrhoeae strain CDC # 214) was ≤ 0.25 µg/mL and the “in vitro activity (in words)” value ([1]; against N. gonococcus (N. gonorrhoeae), Example 2 conclusion) was “Good in vitro activity”.
